From patent US7348344B2, “Polysubstituted 1,1-pyridyloxycyclopropanamine compounds” (Les Laboratoires Servier, priority 2005, dated 2008) come the findings set out here.

Data set [1] deals with T1, type α4β2 central nicotinic receptors (Rattus norvegicus, UniProt P09483+P12390).
T1 construct: from tissue; host or cells: rat brain membranes
In words: Displacement of binding of [3H]-cytisine on type α4β2 nicotinic receptors of rat brain. Particulars: rat brain membranes. The procedure: This study, carried out according to the technique described in Molec. Pharmacol., 1990, 39; 9-12, is aimed at determining the affinity of compounds of the present invention for type α4β2 central nicotinic receptors.
Membranes (250 μg/ml) of rat brain are incubated (2 hours, 20° C.) in the presence of a series of concentrations (0.01-10 μM) of each compound of the present invention (diluted starting from a 10 mM stock solution in DMSO) and [^3H]-cytisine (S.A.: 1184 GBq/mmol: 2 nM) in phosphate buffer (NaH2PO4 20 mM, pH 7.4); final volume: 250 μl. The non-specific binding is determined by incubating membranes in the presence of 10 μM of (−)nicotine. The affinity of the compounds of the present invention for type α4β2 central nicotinic receptors is characterised by determination of the Ki.

The subject of data set [2] is release of acetylcholine in the prefrontal cortex. Description: In vivo measurement of the release of acetylcholine by intra-cortical microdialysis in the conscious Wistar rat. Also noted: dose or concentration left out as unconfirmed. Particulars: one hour after administration. The procedure: The systemic administration of nicotine and nicotinic agonists causes an increase, in vivo, of acetylcholine in various regions of the brain (Neurochem. Res., 1996, 21, 1181-1186; Eur. J. Pharmacol., 1998, 351, 181-188; Br. J. Pharmacol., 1999, 127, 1486-1494). A microdialysis probe is implanted in the median prefrontal cortex of male Wistar rats. Six or seven days after they have been implanted, the probes are perfused with Ringer's solution (NaCl 147 mM, KCl 2.7 mM, CaCl2 1.2 mM, MgCl2 1 mM, neostigmine 20 nM) at a flow rate of 1 μl/min, the animal being free to move. After 2 hours in the animal quarters, the product under test is administered by the intraperitoneal route. A group of control animals receives the solvent used for the product. The dialysates (30 μl) are then collected every 30 minutes for 4 hours in order to measure the cortical extra-synaptic concentrations of acetylcholine by means of HPLC with amperometric detection. The results are expressed in pg of acetylcholine/dialysate, and inter-group comparisons are carried out by means of analysis of variance using 2 factors (treatment×time), with measurements being repeated over time.

Another data set concerns Wistar rat. Description: Social recognition in the Wistar rat. It counts as in vivo. As to conditions: 10 mg/kg IP, second encounter after 2 hours. From the text: Initially described in 1982 (J. Comp. Physiol., 1982, 96, 1000-1006), the social recognition test has subsequently been proposed by various authors (Psychopharmacology, 1987, 91, 363-368; Psychopharmacology, 1989, 97, 262-268) for studying the mnemocognitive effects of new compounds. The test is based on the natural expression of the olfactory memory of the rat and its natural tendency to forget and allows evaluation of memorisation, by recognition of a young congeneric animal, by an adult rat. A young rat (21 days), taken at random, is placed for 5 minutes in the cage housing an adult rat. With the aid of a video device, the experimenter observes the social recognition behaviour of the adult rat and measures its overall duration. The young rat is then removed from the adult rat's cage and is placed in its own cage until the second introduction. The adult rat is given the compound under test by the intraperitoneal route and, after 2 hours, is again brought into the presence (5 minutes) of the young rat. The social recognition behaviour is then observed again and its duration measured. The assessment criterion is the difference (T2−T1), expressed in seconds, between the “recognition” times of the 2 encounters.

Another data set relates to NMRI mouse. In words: Abdominal contractions induced by phenyl-p-benzoquinone (PBQ) in the NMRI mouse. It counts as in vivo. As to conditions: 10 mg/kg IP. The method, then:
Intraperitoneal administration of an alcoholic solution of PBQ causes abdominal cramps in the mouse (Proc. Soc. Exp. Biol., 1957, 95, 729-731). The cramps are characterised by repeated contractions of the abdominal musculature, accompanied by extension of the hind limbs. Most analgesics antagonise these abdominal cramps (Brit. J. Pharmacol. Chem., 1968, 32, 295-310). At t=0 min., the animals are weighed and the compound being studied is administered by the IP route. A group of control animals is given the solvent used for the compound. At t=30 min., an alcoholic solution of PBQ (0.2%) is administered by the IP route in a volume of 0.25 ml/mouse. Immediately after administration of the PBQ, the animals are placed in cylinders of plexiglass (L=19.5 cm; I.D.=5 cm). From t=35 min. to t=45 min., the animals' reaction is observed and the experimenter notes the total number of abdominal cramps per animal. The results are expressed as the percentage inhibition of the number of abdominal cramps measured in the control animals, at the active dose of the compound studied.

T1 sequence (P09483 31-630): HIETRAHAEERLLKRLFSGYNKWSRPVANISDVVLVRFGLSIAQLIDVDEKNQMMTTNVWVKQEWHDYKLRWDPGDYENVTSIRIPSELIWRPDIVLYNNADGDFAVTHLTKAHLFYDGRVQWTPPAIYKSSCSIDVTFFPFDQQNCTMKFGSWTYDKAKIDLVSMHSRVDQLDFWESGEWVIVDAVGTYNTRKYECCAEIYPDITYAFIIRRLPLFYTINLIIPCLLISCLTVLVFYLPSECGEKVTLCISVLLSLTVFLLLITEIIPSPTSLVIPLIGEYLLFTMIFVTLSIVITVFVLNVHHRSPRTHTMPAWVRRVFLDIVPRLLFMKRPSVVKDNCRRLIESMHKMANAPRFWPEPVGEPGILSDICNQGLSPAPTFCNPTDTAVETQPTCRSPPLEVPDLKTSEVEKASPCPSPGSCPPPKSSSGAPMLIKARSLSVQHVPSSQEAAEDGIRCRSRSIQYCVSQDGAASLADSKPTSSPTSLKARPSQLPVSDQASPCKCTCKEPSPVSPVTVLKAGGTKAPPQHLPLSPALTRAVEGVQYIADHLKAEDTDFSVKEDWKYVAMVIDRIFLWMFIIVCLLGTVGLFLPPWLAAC
T1 sequence (P12390 25-500): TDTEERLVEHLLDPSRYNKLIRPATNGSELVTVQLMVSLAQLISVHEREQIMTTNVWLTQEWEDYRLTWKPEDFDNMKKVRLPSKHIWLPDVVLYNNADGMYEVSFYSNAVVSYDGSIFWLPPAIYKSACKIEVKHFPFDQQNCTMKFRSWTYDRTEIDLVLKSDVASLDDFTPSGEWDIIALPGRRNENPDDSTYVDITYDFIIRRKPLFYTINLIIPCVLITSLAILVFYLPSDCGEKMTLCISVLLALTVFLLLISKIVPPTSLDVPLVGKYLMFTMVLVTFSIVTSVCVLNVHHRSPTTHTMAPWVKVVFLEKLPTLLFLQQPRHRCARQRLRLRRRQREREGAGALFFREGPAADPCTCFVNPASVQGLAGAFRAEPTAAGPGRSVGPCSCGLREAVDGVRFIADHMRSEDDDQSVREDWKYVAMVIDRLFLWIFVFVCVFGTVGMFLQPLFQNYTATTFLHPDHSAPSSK

Turning to `C[C@H]1C[C@]1(COc1ccc(Cl)nc1)N(C)C.Cl` (single isomer, unassigned), the melting point was 136 to 138 °C.

With `CN[C@@]1(COc2cccnc2)C[C@H]1C.Cl.Cl` (single isomer, unassigned) [20], the melting point lay in the range of 69 to 72 °C. Regarding `CN[C@@]1(COc2cccnc2)C[C@@H]1C.Cl.Cl` (single isomer, unassigned) [Example 2, (1S,2S)- or (1R,2R)-(−)-N,2-dimethyl-1-[(3-pyridinyloxy)methyl]cyclopropanamine Dihydrochloride], the melting point was 174 to 176 °C. The compound also displayed a Ki in data set [1] of 69 nM. Also, the “increase in the release of acetylcholine in the prefrontal cortex” value in data set [2] was “+86%”. Also, the “difference (T2−T1) between recognition times” value in the data set on Wistar rat is reported as 38 s.

Consider `C[C@H]1C[C@@]1(N)COc1ccc(Cl)nc1.Cl` (single isomer, unassigned), for which the melting point is 183 to 186 °C.

For `CN[C@@]1(COc2cccnc2)C[C@H]1C.Cl.Cl` (single isomer, unassigned) [21], the melting point was in the range of 71 to 74 °C. Same read-out and setting: the figure for `CN[C@@]1(COc2ccc(Cl)nc2)C[C@@H]1C.Cl` (single isomer, unassigned) [12] is 188 to 192 °C. In turn, `CNC1(COc2cccnc2)CC1(C)C.O=C(O)/C=C/C(=O)O.O=C(O)/C=C/C(=O)O` (single isomer, unassigned) [Example 27] returned a melting point of 115 to 118 °C. As to `C[C@H]1C[C@@]1(N)COc1ccc(Cl)nc1.Cl` (single isomer, unassigned) [Example 15, (1S,2S)- or (1R,2R)-(+)-1-{[(6-chloro-3-pyridinyl)oxy]methyl}-2-methylcyclopropanamine Hydrochloride], the “reduction of the number of abdominal cramps caused by PBQ” value in the data set with NMRI mouse is −69%.

Compound `CNC1(COc2cccnc2)CC1(C)C.O=C(O)/C=C/C(=O)O.O=C(O)/C=C/C(=O)O` (single isomer, unassigned) [26] came in with a melting point of 124 to 127 °C. On the same count and under the same terms, the figure for `C[C@H]1C[C@@]1(N)COc1cccnc1.Cl.Cl` (single isomer, unassigned) is less than 75 °C.

The compound `CN[C@@]1(COc2ccc(Cl)nc2)C[C@@H]1C.Cl` (single isomer, unassigned) [11] came in with a melting point of 185 to 190 °C.

One may read the melting point as the temperature of the solid-liquid transition. Broadly, the Ki is the equilibrium dissociation constant of an inhibitor or competing ligand from its target.
